Experimental data as given in patent US10278971B2, “Fluorocyclopentenylcytosine methods of use” (Rexahn Pharmaceuticals, Inc., priority 2015, dated 2019).

How the values were obtained:
SW1573/G- = assay: Clonogenic assay, radiosensitizing effect; type: cell-based, human; conditions: 1 μM pre-incubation 24 h, irradiation
Procedure: (§1) Exponential growing A2780, SW1573, A549, H460 and SW1573/G-cells were exposed to 1 μM RX-3117 or untreated (control) for 24 h and irradiated with single doses γ-radiation (0-6 Gy) using a ^60Co source (Gammacell 200, Atomic Energy of Canada, Ltd). Subsequently, 500 cells/T25 flasks were plated and allowed to form colonies. After ten days colonies were fixed with 100% ethanol and stained with 10% Giemsa stain solution (Merck Chemicals BV, Amsterdam, the Netherlands) for colonies counting. Plating efficiency (PE) was calculated by dividing the number of colonies formed through the number of cells plated and normalized for cytotoxicity induced by control. To illustrate the effect of RX-3117 on radiation, dose modifying factor (DMF) was calculated as described earlier (Bijnsdorp I V, van den Berg J, Kuipers G K, Wedekind L E, Slotman B J, van Rijn J, Lafleur M V M and Sminia P: Radiosensitizing potential of the selective cyclooygenase-2 (COX-2) inhibitor meloxicam on human glioma cells. J Neurooncol 85: 25-31, 2007).

A2780 = assay: Clonogenic assay, radiosensitizing effect; type: cell-based, human
Procedure: as §1

SW1573 = assay: Clonogenic assay, radiosensitizing effect; type: cell-based, human
Procedure: as §1

H460 = assay: Clonogenic assay, radiosensitizing effect; type: cell-based, human; conditions: H460, 1 μM pre-incubation 24 h, irradiation
Procedure: as §1

A549 = assay: Clonogenic assay, radiosensitizing effect; type: cell-based, human; conditions: A549, 1 μM pre-incubation 24 h, irradiation 0-6 Gy
Procedure: as §1

[1] = Open-label dose-ranging study: pharmacokinetics, safety and tolerability of oral doses; type: in vivo, human; conditions: for AUC(0-t): AUC0-24
Procedure: In an open-label, dose-ranging study, the pharmacokinetics (PK) of RX-3117 at various oral doses was evaluated. Subjects with advanced malignant tumors were administered capsules containing RX-3117 at daily doses of 30 mg (N=1), 60 mg (N=1), 100 mg (N=3), 150 mg (N=3), 200 mg (N=3), 500 mg (N=3), 1000 mg (N=3), 1500 mg (N=4), and 2000 mg (N=5 to date) 3 times a week (TIWK) for 3 weeks with 1 week off during each 4 week cycle. Based on the continued safety profile, and to enhance weekly RX-3117 exposure, more frequent dosing was also implemented. In addition to the TIWK dosing scheme discussed above, subjects also received 500 mg and 700 mg 5 times a week, and 500 mg for 7 times a week for 3 weeks with 1 week off during each 4 week cycle. Dose escalation began with an accelerated design treating 1 subject per dose (Simon et al., J Natl. Cancer Inst., 89(15):1138-47 (1997) followed by a standard 3+3 design using a modified Fibonacci sequence after the occurrence of a single related Grade 2 or greater adverse event. Table 3 summarizes the dosing schedule.
The efficacy, safety and tolerability of RX-3117 at various doses and frequencies were evaluated (see Example 4, above). Subjects with advanced malignant tumors were administered capsules containing RX-3117 at various doses, from TIWK to 7 times per week for 3 weeks with 1 week off during each 4-week cycle. Dose escalation begins with an accelerated design treating 1 subject per dose (Simon et al., J. Natl. Cancer Inst., 89(15):1138-47 (1997) followed by a standard 3+3 design using a modified Fibonacci sequence after the occurrence of a single related Grade 2 or greater adverse event. Table 4 (above) summarizes the dosing schedule.

With Nc1ccn([C@@H]2C(F)=C(CO)[C@@H](O)[C@H]2O)c(=O)n1 [RX-3117, 4-amino-1-((1S,4R,5S)-2-fluoro-4,5-dihydroxy-3-hydroxymethyl-cyclopent-2-enyl)-1H-pyrimidin-2-one] the “dose modifying factor (DMF)” value (SW1573/G-) was 1.4, the “dose modifying factor (DMF)” value (A2780; A2780, 1 μM pre-incubation 24 h, irradiation 0-6 Gy) was 1.8 and the “plating efficiency compared to control” value (A2780; A2780, pre-incubation 1 μM 24 h, 4 Gy) was “five times lower”. For the same compound, the “colonies outgrowth, fractionated radio therapy” value (SW1573; SW1573, 1 μM prior to 5 times 2 Gy) was “lowest colonies outgrowth”, the “dose modifying factor (DMF)” value (SW1573; SW1573, 5 μM (FIG. 16 legend) pre-incubation 24 h, irradiation) was 1.5 and the radiosensitizing effect (H460) was “poor radiosensitizing effect”. For the same compound, the “dose modifying factor (DMF)” value (A549) was 1.8, the “maximum tolerated dose (MTD)” value ([1]; 5 days per week, three weeks with 1 week off per 4-week cycle) was 700 mg daily and the maximal tolerated dose ([1]; Phase I clinical study, as stated in Example 7) was “higher than 2,000 mg/day”. For the same compound, the “apparent terminal T1/2, mean values” ([1]; human, in vivo) was 12.3 to 20.2 h, the dose limiting toxicities ([1]; human, in vivo) was “Grade 3 anemia, thrombocytopenia” and the “share of AUC0-t (0-24 hours) observed in the first 8 hours” value ([1]; human, in vivo) was “about half”. The “share of AUC observed by 24 hours” value ([1]; human, in vivo) was “over 80%”, the half-life ([1]; human, in vivo, apparent terminal T1/2, mean values) was 11.6 to 16.7 h and the Tmax ([1]; human, in vivo, po, 30 mg, Tmax) was 2 h. It also gave an AUC0-24 ([1]; human, in vivo, po, 60 mg) of 1.164 µg·h/mL, a Cmax ([1]; human, in vivo, po, 60 mg) of 0.139 µg/mL and a T1/2 ([1]; human, in vivo, po, 60 mg) of 16.2 h. It also gave an AUC(0-t) ([1]; human, in vivo, po, 60 mg) of 1.57 µg·h/mL, a Cmax ([1]; human, in vivo, po, 60 mg, Cmax) of 0.113 µg/mL and a half-life ([1]; human, in vivo, po, 60 mg, T1/2) of 15.7 h. For the same compound, the Tmax ([1]; human, in vivo, po, 60 mg, Tmax) was 4 h, the AUC0-24 ([1]; human, in vivo, po, 100 mg) was 2.714 µg·h/mL and the Cmax ([1]; human, in vivo, po, 100 mg) was 0.357 µg/mL. The T1/2 ([1]; human, in vivo, po, 100 mg) was 15.4 h, the AUC(0-t) ([1]; human, in vivo, po, 100 mg) was 3.29 µg·h/mL and the Cmax ([1]; human, in vivo, po, 100 mg, Cmax) was 0.46 µg/mL. It also gave a half-life ([1]; human, in vivo, po, 100 mg, T1/2) of 20.2 h, a Tmax ([1]; human, in vivo, po, 100 mg, Tmax) of 2 h and an AUC0-24 ([1]; human, in vivo, po, 150 mg) of 2.437 µg·h/mL. It also gave a Cmax ([1]; human, in vivo, po, 150 mg) of 0.36 µg/mL, a T1/2 ([1]; human, in vivo, po, 150 mg) of 15.1 h and an AUC(0-t) ([1]; human, in vivo, po, 150 mg) of 3.55 µg·h/mL. For the same compound, the Cmax ([1]; human, in vivo, po, 150 mg, Cmax) was 0.511 µg/mL, the half-life ([1]; human, in vivo, po, 150 mg, T1/2) was 13.9 h and the Tmax ([1]; human, in vivo, po, 150 mg, Tmax) was 3 h. For the same compound, the AUC0-24 ([1]; human, in vivo, po, 200 mg) was 4.574 µg·h/mL, the Cmax ([1]; human, in vivo, po, 200 mg) was 0.643 µg/mL and the T1/2 ([1]; human, in vivo, po, 200 mg) was 16.2 h. For the same compound, the AUC(0-t) ([1]; human, in vivo, po, 200 mg) was 4.72 µg·h/mL, the Cmax ([1]; human, in vivo, po, 200 mg, Cmax) was 0.637 µg/mL and the half-life ([1]; human, in vivo, po, 200 mg, T1/2) was 13.3 h. It also gave a Tmax ([1]; human, in vivo, po, 200 mg, Tmax) of 2 h, a Tmax ([1]; human, in vivo, po, 500 mg) of 2.5 h and an AUC(0-t) ([1]; human, in vivo, po, 500 mg) of 7.92 µg·h/mL. For the same compound, the Cmax ([1]; human, in vivo, po, 500 mg, Cmax) was 1.1 µg/mL, the Tmax ([1]; human, in vivo, po, 500 mg, Tmax) was 2 h and the AUC0-24 ([1]; human, in vivo, po, 700 mg) was 6.321 µg·h/mL. It also gave a Cmax ([1]; human, in vivo, po, 700 mg) of 0.674 µg/mL, a T1/2 ([1]; human, in vivo, po, 700 mg) of 11.2 h and an AUC(0-t) ([1]; human, in vivo, po, 700 mg) of 8.66 µg·h/mL. For the same compound, the Cmax ([1]; human, in vivo, po, 700 mg, Cmax) was 0.989 µg/mL, the half-life ([1]; human, in vivo, po, 700 mg, T1/2) was 9.05 h and the Tmax ([1]; human, in vivo, po, 700 mg, Tmax) was 3 h. It also gave an AUC0-24 ([1]; human, in vivo, po, 1000 mg) of 9.753 µg·h/mL, a Cmax ([1]; human, in vivo, po, 1000 mg) of 1.21 µg/mL and a T1/2 ([1]; human, in vivo, po, 1000 mg) of 14.9 h. It also gave an AUC(0-t) ([1]; human, in vivo, po, 1000 mg) of 12.2 µg·h/mL, a Cmax ([1]; human, in vivo, po, 1000 mg, Cmax) of 1.64 µg/mL and a half-life ([1]; human, in vivo, po, 1000 mg, T1/2) of 11.6 h. The Tmax ([1]; human, in vivo, po, 1000 mg, Tmax) was 2 h, the Cmax ([1]; human, in vivo, po, 1500 mg) was 0.883 µg/mL and the T1/2 ([1]; human, in vivo, po, 1500 mg) was 13.8 h. The Cmax ([1]; human, in vivo, po, 1500 mg, Cmax) was 1.62 µg/mL, the half-life ([1]; human, in vivo, po, 1500 mg, T1/2) was 11.8 h and the Tmax ([1]; human, in vivo, po, 1500 mg, Tmax) was 3 h. For the same compound, the AUC0-24 ([1]; human, in vivo, po, 2000 mg) was 17.403 µg·h/mL, the Cmax ([1]; human, in vivo, po, 2000 mg) was 1.703 µg/mL and the T1/2 ([1]; human, in vivo, po, 2000 mg) was 12.1 h. It also gave an AUC(0-t) ([1]; human, in vivo, po, 2000 mg) of 17 µg·h/mL, a Cmax ([1]; human, in vivo, po, 2000 mg, Cmax) of 1.86 µg/mL and a half-life ([1]; human, in vivo, po, 2000 mg, T1/2) of 13.3 h. The Tmax ([1]; human, in vivo, po, 2000 mg, Tmax) was 3 h, the Tmax ([1]; human, in vivo, po, median Tmax) was 2 to 3 h and the accumulation ([1]; in vivo) was “generally minimal”. For the same compound, the “most frequent related adverse events” value ([1]; in vivo) was “moderate to severe anemia, mild to moderate fatigue and nausea, mild diarrhea, vomiting, and anorexia” and the “most frequently observed adverse events” value ([1]; in vivo) was “mild to moderate fatigue and nausea, mild diarrhea, mild vomiting, mild anorexia and moderate dehydration”.
